From US20040242669A1, “Method of treating deficits associated with brain injury” (priority 2003, published 2004)
Marks after values point to notes of the source that are not given here.

Experiments:
Format in all cases: in vivo, rat
[1] = system: animals with hypobaric hypoxia-induced amnesia; test: Step-through passive avoidance, hypobaric hypoxia-induced amnesia; details: for Latency: hypobaric hypoxia, median latency to re-enter dark box, max 300 s
Procedure: (§1) Male rats of the Sprague-Dawley strain (purchased from Charles River, Italy) weighing 280±20 g were used throughout all experiments. The animals were housed two-three to a cage under a constant light-dark cycle (lights on between 8.00 and 20.00) at 21° C. Commercial food and tap water were available ad libitum. All animals were used only once in the behavioral experiments.
(§2) Ropinirole (ropinirole hydrochloride, SmithKline Beecham, Italy) and dihydroergocryptine (DHECP) α-dihydroergocryptine methanesulfonate, Monsanto, Italy) were dissolved in saline and injected subcutaneously (s.c.) at the dose of 0.5 and 1 mg/kg/day for 7 days. In the experiments with kainate-induced convulsions, ropinirole or DHECP were injected intravenously (i.v.) 30 min prior, and again at the same time of the intracerebroventricular (i.c.v) injection on kainic acid; Control animals received an injection of saline alone with the same procedure.
Passive avoidance behaviour was studied in a step-through type of passive avoidance situation (Ader et al., Psycon Sci, 26, 125-128 (1972)). Briefly the rats were adapted to the apparatus consisting of a large dark compartment equipped with a grid floor and a mesh-covered elevated runway attached to the front centre of the dark chamber. Adaptation training was followed by a single trial in which the rats were placed on the elevated platform and allowed to enter the dark box. Three such trials were given on the next day with an intertrial interval of 5 min after the trial. The rats received a single 2-s unavoidable scrambled foot-shock (0.20 mA) immediately after entering the dark compartment. Retention of the response was tested 24 h after the learning trial. The rats were placed on the elevated runway and the latency to re-enter the shock compartment was recorded up to a maximum of 300 s.
(§3) In the first experiment, the effects of ropinirole or DHECP were studied on amnesia induced by hypobaric hypoxia in rats. After a 7-day pretreatment with ropinirole, DHECP or saline, a group of animals was subjected to acute hypobaric hypoxia by means of a hypobaric chamber (Chantiers et Ateliers de Bretagne, France) causing depression to 300 mmHg (Boismare et al., Gerentology, 24, 6-13 (1978)). After 3 min in the chamber, the animals were removed and admitted for behavioral testing. Intact control rats were also introduced into the chamber but not subjected to hypobaric hypoxia.

[2] = system: reduced glutathione in brain areas of rats subjected to chronic brain occlusive ischemia; test: Brain glutathione content and redox index after chronic brain occlusive ischemia; details: for reduced glutathione content: mean ± S.E.M.
Description: A number of animals were subjected to a manipulation of the four major arteries of the brain with a method similar to that described by Pulsinelli et al., Ann. Neurol, 11, 491-498 (1982). Both vertebral arteries were cauterised under sodium pentobarbital anaesthesia and polyethylene cuffs PE-10 were placed loosely around the common carotid arteries without completely interrupting carotid blood flow. Two months after operation, all surviving animals showing no neurological gross abnormalities were admitted to drug treatment. Animals undergoing a sham operation were considered as controls.
(§4) At the end of the behavioral studies, the brain of animals sacrificed by decapitation were taken and rapidly frozen for analysis. Dissection and weighing were carried out at −25° C. The frozen forebrains were immediately powered under liquid nitrogen by an electromechanical apparatus and stored at […]. The assay of reduced and oxidized glutathione by 5,5′-dithibis-(2-nitrobenzoic acid) in frozen forebrain powder was carried out within 3 h, utilizing perchloric acid and N-ethylmaleimide in presence of ethylenediamidetetraacetic acid for the extraction procedure (Tietze, Anal Biochem, 27, 502-522, (1969)).
Animals with 2-month chronic brain occlusive ischemia, were subjected to a treatment with ropinirole, DHECP or saline for 7 days. At the end of treatment, the animals were admitted to behavioral testing. Controls were those animals with sham manipulation of brain arteries.
(§5) All animals used for hypobaric hypoxia induced amnesia and for chronic brain occlusive ischemia was sacrificed at the end behavioral procedure for biochemical analyses.

[3] = system: reduced glutathione in brain areas of rats subjected to hypobaric hypoxia; test: Brain glutathione content and redox index after hypobaric hypoxia; details: for reduced glutathione content: mean ± S.E.M.
Procedure: as §4, §3, §5

[4] = system: animals with hypobaric hypoxia-induced amnesia; test: Open field spontaneous motor activity, hypobaric hypoxia; details: for Ambulation / Defecation / Grooming / Rearing: 5 min open field, mean ± S.E.M.
Procedure: as §1, §2
Spontaneous motor activity was scored in a circular open field arena as described by Weijnen and Slangen, Pituitary, Adrenal and the Brain, pp221-235 (1982). Animals were put inside a circular lit-up arena, with the bottom divided into 27 areas of equal size.
as §3

[5] = system: animals with hypobaric hypoxia-induced amnesia; test: Shuttle-box active avoidance acquisition, hypobaric hypoxia-induced amnesia; details: for Learners / CARs: hypobaric hypoxia; for CARs: mean ± S.E.M.
Procedure: as §1, §2
Shuttle-box active avoidance acquisition was studied in a single session test as described in Bohus and De Wied, Endogenous Peptides and Learning and Memory Processes. Academic Press, New York, pp59-775, (1981). Briefly, the rats were trained to avoid the unconditioned stimulus (US) of a scrambled electrical foot-shock (0.20 mA) delivered through the grid floor. The conditioned stimulus (CS) was a buzzer presented for 3 s prior to the US. If no escape occurred within 20 s of CS/US presentation, the shock was terminated. A maximum of 30 conditioning trials were given with a variable intertrial interval averaging 60 s. The learning criterion was five consecutive conditioned avoidance responses (CARs). For those animals that reached the criterion in less than 30 trials, the remaining trials until 30 were considered as CARs. Indexes of avoidance behaviour were the total number of CARs and the percent number of learners per group.
as §3

[6] = hypobaric hypoxia-induced amnesia, summary of Table 1

CC(C)C[C@H]1C(=O)N2CCC[C@H]2[C@]2(O)O[C@](NC(=O)[C@@H]3C[C@@H]4c5cccc6[nH]cc(c56)C[C@H]4N(C)C3)(C(C)C)C(=O)N12 [DHECP, α-dihydroergocryptine methanesulfonate]
latency to re-enter the dark box (effect of treatment, in words) [1, 6]: increase in these behavioral parameters, however, for the latter only with the greater dose | Latency ([1]; 0.5 mg/kg/day s.c. for 7 days): 30^e | Latency ([1]; 1 mg/kg/day s.c. for 7 days): 74^f | glutathione redox index (glutathione reduced/glutathione oxidized ratio) ([2]; Cortex, 0.5 mg/kg): 2.5 | reduced glutathione content ([2]; Cortex, 0.5 mg/kg): 2.3 ± 0.1 mM | glutathione redox index (glutathione reduced/glutathione oxidized ratio) ([2]; Cortex, 1 mg/kg): 2.3 | reduced glutathione content ([2]; Cortex, 1 mg/kg): 2.6 ± 0.2 mM | glutathione redox index (glutathione reduced/glutathione oxidized ratio) ([2]; Hippocampus, 0.5 mg/kg): 1.8 | reduced glutathione content ([2]; Hippocampus, 0.5 mg/kg): 2.0 ± 0.2 mM | glutathione redox index (glutathione reduced/glutathione oxidized ratio) ([2]; Hippocampus, 1 mg/kg): 2.2 | reduced glutathione content ([2]; Hippocampus, 1 mg/kg): 2.3 ± 0.3 mM | glutathione redox index (glutathione reduced/glutathione oxidized ratio) ([2]; Hypothalamus, 0.5 mg/kg): 2.6 | reduced glutathione content ([2]; Hypothalamus, 0.5 mg/kg): 2.8 ± 0.2 mM | glutathione redox index (glutathione reduced/glutathione oxidized ratio) ([2]; Hypothalamus, 1 mg/kg): 2.7 | reduced glutathione content ([2]; Hypothalamus, 1 mg/kg): 2.7 ± 0.2 mM | glutathione redox index (glutathione reduced/glutathione oxidized ratio) ([2]; Striatum, 0.5 mg/kg): 0.7 | reduced glutathione content ([2]; Striatum, 0.5 mg/kg): 1.8 ± 0.2 mM | glutathione redox index (glutathione reduced/glutathione oxidized ratio) ([2]; Striatum, 1 mg/kg): 0.7 | reduced glutathione content ([2]; Striatum, 1 mg/kg): 1.7 ± 0.2 mM | glutathione redox index (glutathione reduced/glutathione oxidized ratio) ([3]; Cortex, 0.5 mg/kg): 2.5 | reduced glutathione content ([3]; Cortex, 0.5 mg/kg): 2.2 ± 0.2 mM | glutathione redox index (glutathione reduced/glutathione oxidized ratio) ([3]; Cortex, 1 mg/kg): 2.3 | reduced glutathione content ([3]; Cortex, 1 mg/kg): 2.5 ± 0.2 mM | glutathione redox index (glutathione reduced/glutathione oxidized ratio) ([3]; Hippocampus, 0.5 mg/kg): 1.8 | reduced glutathione content ([3]; Hippocampus, 0.5 mg/kg): 2.1 ± 0.2 mM | glutathione redox index (glutathione reduced/glutathione oxidized ratio) ([3]; Hippocampus, 1 mg/kg): 2.2 | reduced glutathione content ([3]; Hippocampus, 1 mg/kg): 2.4 ± 0.2 mM | glutathione redox index (glutathione reduced/glutathione oxidized ratio) ([3]; Hypothalamus, 0.5 mg/kg): 2.6 | reduced glutathione content ([3]; Hypothalamus, 0.5 mg/kg): 2.8 ± 0.2 mM | glutathione redox index (glutathione reduced/glutathione oxidized ratio) ([3]; Hypothalamus, 1 mg/kg): 2.8 | reduced glutathione content ([3]; Hypothalamus, 1 mg/kg): 2.8 ± 0.2 mM | glutathione redox index (glutathione reduced/glutathione oxidized ratio) ([3]; Striatum, 0.5 mg/kg): 0.7 | reduced glutathione content ([3]; Striatum, 0.5 mg/kg): 1.8 ± 0.2 mM | glutathione redox index (glutathione reduced/glutathione oxidized ratio) ([3]; Striatum, 1 mg/kg): 1.7 | reduced glutathione content ([3]; Striatum, 1 mg/kg): 2.5 ± 0.2 mM | reduced glutathione content and glutathione redox index (effect of treatment, in words) ([3]; cortex, hippocampus and hypothalamus, both doses): increase | reduced glutathione content and glutathione redox index (effect of treatment, in words) ([3]; striatum): only with the greater dose | Ambulation ([4]; 0.5 mg/kg/day s.c. for 7 days): 68.9 ± 6.6^b | Defecation ([4]; 0.5 mg/kg/day s.c. for 7 days): 3.4 ± 0.9 | Grooming ([4]; 0.5 mg/kg/day s.c. for 7 days): 22.2 ± 2.3 | Rearing ([4]; 0.5 mg/kg/day s.c. for 7 days): 16.4 ± 1.3^a,b | Ambulation ([4]; 1 mg/kg/day s.c. for 7 days): 73.1 ± 5.6^a,b | Defecation ([4]; 1 mg/kg/day s.c. for 7 days): 3.7 ± 1.3 | Grooming ([4]; 1 mg/kg/day s.c. for 7 days): 23.3 ± 2.1 | Rearing ([4]; 1 mg/kg/day s.c. for 7 days): 16.5 ± 1.9^b | ambulation and rearing (effect of treatment, in words) ([4]; vs intact controls and saline-treated hypoxic animals): higher | number of CARs and percent number of learners in the shuttle-box (effect of treatment, in words) [5, 6]: increase in these behavioral parameters, however, for the latter only with the greater dose | Learners ([5]; 0.5 mg/kg/day s.c. for 7 days): 30^c percent | CARs ([5]; 0.5 mg/kg/day s.c. for 7 days): 13.0 ± 1.3^a | Learners ([5]; 1 mg/kg/day s.c. for 7 days): 80^d percent | CARs ([5]; 1 mg/kg/day s.c. for 7 days): 18.1 ± 1.2^b
